Test systems include MOLT-4 leukemia; A549 NSCLC; NCI-H23 lung; SF-539 CNS; MDA-MB-231 breast; DU-145 prostate; OVCAR-8 ovarian; SNB-75 CNS; SK-OV-3 ovarian; OVCAR-4 ovarian; HT29 colon; SK-MEL-2 melanoma.
Common to all, as to assay: NCI tumour cell line growth inhibition, 48 h

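48-hour exposure; five concentrations; linearly interpolated endpoints. Definition used: TGI = concentration required for complete inhibition of growth.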

Take `COc1cc(Nc2nc3ccccc3nc2C(=O)O)cc(OC)c1OC`: the TGI in the assay on MOLT-4 leukemia, with A549 NSCLC, with NCI-H23 lung, in the assay on SF-539 CNS, with MDA-MB-231 breast and in the assay on DU-145 prostate was above 100 µM each time. The TGI with OVCAR-8 ovarian, in the assay with SNB-75 CNS and with SK-OV-3 ovarian was above 100 µM each time.
With `c1ccc(N=C(N2CCCC2)N(CCN2CCCC2)c2ccccc2)cc1`, the TGI in the assay with MOLT-4 leukemia was above 100 µM; with A549 NSCLC, above 100 µM; with NCI-H23 lung, above 100 µM; in the assay with OVCAR-4 ovarian it was above 100 µM; with OVCAR-8 ovarian it was above 100 µM; with HT29 colon, 14.8 µM. The TGI in the assay on SNB-75 CNS is 78 µM; in the assay with SK-MEL-2 melanoma, above 100 µM; in the assay on SK-OV-3 ovarian it was above 100 µM.
As to `N#C[C@H](c1ccccn1)c1nc2ccccc2nc1Cl`, the TGI in the assay on MOLT-4 leukemia, with A549 NSCLC, with NCI-H23 lung, with SF-539 CNS, with MDA-MB-231 breast and with OVCAR-4 ovarian was above 100 µM throughout. Further, the TGI in the assay with OVCAR-8 ovarian, with HT29 colon, in the assay with SNB-75 CNS, in the assay with SK-MEL-2 melanoma and with SK-OV-3 ovarian was above 100 µM in each case.
Turning to `O=C1COc2cccnc2N1CCCCO`, the TGI in the assay on MOLT-4 leukemia, in the assay with A549 NSCLC, in the assay on SF-539 CNS, in the assay with MDA-MB-231 breast, with DU-145 prostate and in the assay on SNB-75 CNS was above 100 µM in each case. Further, the TGI with SK-MEL-2 melanoma and in the assay with SK-OV-3 ovarian was above 100 µM each time.
On to `O=c1[nH]cnc2c1cnn2Cc1cn(CCCCO)nn1`, for which the TGI in the assay on MOLT-4 leukemia, in the assay with A549 NSCLC, in the assay on NCI-H23 lung, with SF-539 CNS, in the assay with MDA-MB-231 breast and with DU-145 prostate was above 100 µM throughout. In addition, the TGI in the assay on OVCAR-4 ovarian, in the assay on OVCAR-8 ovarian, with HT29 colon, with SK-MEL-2 melanoma and with SK-OV-3 ovarian was above 100 µM in each case.
For `O=C1C=CC(=O)c2c1ccc1c3ccccc3n(CCCCCn3c4ccccc4c4ccc5c(c43)C(=O)C=CC5=O)c21`, the TGI was 5.11 µM in the assay with MOLT-4 leukemia; above 100 µM in the assay with A549 NSCLC; 32.8 µM with NCI-H23 lung; 33.9 µM in the assay with SF-539 CNS; 46.8 µM with MDA-MB-231 breast; above 100 µM in the assay on DU-145 prostate. Further, the TGI with OVCAR-8 ovarian was 46.9 µM; in the assay with HT29 colon, 85.5 µM; in the assay on SNB-75 CNS, 32.9 µM; with SK-MEL-2 melanoma it was 44.8 µM; with SK-OV-3 ovarian it was above 100 µM.
For `O=C1Nc2cccc(Cl)c2/C1=C\c1c(Cl)nc2n1CCS2`, the TGI with MOLT-4 leukemia, with A549 NSCLC, in the assay on NCI-H23 lung, in the assay with SF-539 CNS, with MDA-MB-231 breast and in the assay on DU-145 prostate was above 100 µM throughout. Also, the TGI in the assay on OVCAR-8 ovarian, in the assay with HT29 colon, with SNB-75 CNS, in the assay with SK-MEL-2 melanoma and in the assay on SK-OV-3 ovarian was above 100 µM each time.
`CC(C)(C)OC(=O)NC1CCCCC1NC(=O)C(=O)NC1CCCCC1NC(=O)OC(C)(C)C` (stereo not drawn): the TGI in the assay with MOLT-4 leukemia, in the assay with A549 NSCLC, with NCI-H23 lung, in the assay on SF-539 CNS, with MDA-MB-231 breast and in the assay on DU-145 prostate was above 100 µM each time. The TGI in the assay on OVCAR-4 ovarian, in the assay on OVCAR-8 ovarian, in the assay on HT29 colon, in the assay with SK-MEL-2 melanoma and in the assay with SK-OV-3 ovarian was above 100 µM each time.
As to `O=C(O)CCCc1nc2c(n1Cc1ccccc1)C(=O)c1ccccc1C2=O`, the TGI in the assay with MOLT-4 leukemia, in the assay on A549 NSCLC, in the assay on NCI-H23 lung, in the assay on SF-539 CNS, in the assay on MDA-MB-231 breast and with DU-145 prostate was above 100 µM each time. In addition, the TGI is 77.8 µM in the assay on OVCAR-4 ovarian, above 100 µM in the assay on OVCAR-8 ovarian, 52.9 µM in the assay on SK-MEL-2 melanoma and above 100 µM with SK-OV-3 ovarian.
Take `CC1(C)C(C#N)C1C1=C(N2CCOCC2)[C@]2(C)C(OC(=O)c3ccccc3)CC[C@@H]2C1` (stereo partly drawn): the TGI in the assay on MOLT-4 leukemia, in the assay with A549 NSCLC, in the assay on NCI-H23 lung, in the assay on SF-539 CNS, with MDA-MB-231 breast and in the assay with OVCAR-4 ovarian was above 100 µM in each case. Moreover, the TGI with OVCAR-8 ovarian, in the assay on HT29 colon, in the assay with SNB-75 CNS and with SK-OV-3 ovarian was above 100 µM each time.
On to `CC(=O)N=C1N(/C=C2\C(=O)Oc3ccccc3C2=O)C(=O)/C(=C/c2cccc(Cl)c2Cl)N1C`, for which the TGI in the assay with MOLT-4 leukemia was above 100 µM; in the assay on A549 NSCLC, above 100 µM; in the assay on NCI-H23 lung, above 100 µM; in the assay with SF-539 CNS it was 27.7 µM; in the assay with MDA-MB-231 breast, 86.4 µM; with DU-145 prostate, above 100 µM. Besides, the TGI in the assay with OVCAR-8 ovarian came to 44.3 µM; in the assay on HT29 colon it was 49.1 µM; with SNB-75 CNS, 57.8 µM; with SK-MEL-2 melanoma, 60.4 µM; in the assay on SK-OV-3 ovarian, 39.4 µM.
For the compound `COc1cc(C2C3C=CC=C4CC=CC(=C43)C3CCC(=O)N32)cc(OC)c1OC` (stereo not drawn), the TGI in the assay on MOLT-4 leukemia, in the assay on A549 NSCLC, in the assay on SF-539 CNS, in the assay with MDA-MB-231 breast, with DU-145 prostate and with OVCAR-8 ovarian was above 100 µM each time. In addition, the TGI with HT29 colon, in the assay on SNB-75 CNS, in the assay with SK-MEL-2 melanoma and in the assay with SK-OV-3 ovarian was above 100 µM throughout.
Turning to `O=C1C2SC34c5c2c2ccccc2n5CCC3CCCN14` (stereo not drawn), the TGI in the assay with MOLT-4 leukemia, with A549 NSCLC, with NCI-H23 lung, with SF-539 CNS, in the assay with MDA-MB-231 breast and in the assay with DU-145 prostate was above 100 µM each time. For the same compound, the TGI in the assay on OVCAR-4 ovarian, in the assay with OVCAR-8 ovarian, with HT29 colon, in the assay with SK-MEL-2 melanoma and in the assay on SK-OV-3 ovarian was above 100 µM each time.

Source of the values: PubChem BioAssay (NCI).
